Reference: patent US12558327B2, “Methods and compositions for treating sleep apnea” (The Brigham and Women's Hospital, Inc., priority 2019, dated 2026)
Where “and” joins values, the source holds several entries; their conditions need not be identical. Equal entries are not always repeated. Entries after “also recorded” stand apart in the source; their conditions may differ. Where two headings read alike, the source gives them in different places.

Columns and labels:
OSA patients [1] = conditions: cited from earlier work
OSA patients [2] = assay: Atomoxetine plus pimavanserin sleep study in 5 OSA patients (Example 4); format: in vivo, human; conditions: inferred from combination effect and atomoxetine-alone reduction
Description: We administered the recently-approved selective 5-HT2A inverse agonist pimavanserin 34 mg to block the EEG arousal response to CO2 in association with atomoxetine 80 mg and measured the effect of this combination on OSA severity, arousal threshold and collapsibility in 5 patients. These doses were chosen as they are the usual effective doses for attention-deficit disorder and delusion-hallucinations in patients with Parkinson's disease, respectively, based on prescribing information. Patients were also instrumented with an oronasal mask, and in 4/5 patients, esophageal catheter and genioglossus intramuscular electrodes. […] The effect on the arousal threshold is noteworthy, because pimavenserin was administered together with atomoxetine, a wake-promoting drug that, as described above, caused a reduction in arousal threshold by ˜18% compared to placebo in OSA patients in a previous trial. This means that pimavanserin could actually increase the respiratory arousal threshold by ˜50%.

OSA subjects = assay: Tiagabine in 14 OSA subjects; format: in vivo, human
Description: As described herein, drugs that increase sleep depth (and slow wave sleep (SWS) in particular) such as tiagabine or gabapentin could help the resolution of OSA. […] The pharmacological increase in slow wave sleep (SWS) could be an ideal mechanism for raising the arousal threshold to treat OSA, particularly since SWS seems to be a “protective state” against OSA. […] The reason for improvement likely relates to changes in the non-anatomical factors that contribute to OSA during SWS such as reduced arousability, thereby enabling a higher activation of upper airway dilator muscles. […] Thus, as described herein, drugs such as gabapentin that cause 20-60% increase of SWS^20,21, are ideal candidates for the treatment of OSA in association with atomoxetine.

patients with OSA = conditions: drug taken alone, cited from earlier work
[3] = tested on: OSA patients; normal controls; conditions: cited from earlier work
OSA patients [4] = conditions: zopiclone n=14 vs placebo n=16; 30 days; non-significant; cited from earlier work
OSA patients [5] = conditions: zopiclone 7.5 mg, 1 night, n=12; cited from earlier work
[6] = tested on: subjects with and without OSA; conditions: cited from earlier work
[7] = in vivo; cited from earlier work
OSA patients [8] = conditions: cited from earlier work; remark: listed apart in the source
patients with mild OSA = conditions: 15 patients with mild OSA; cited from earlier work
OSA patients [9] = conditions: for NREM (atomoxetine) and REM (oxybutynin) specific AHI / effect on ventilation during sleep / oxygen saturation / oxygen levels compared to placebo: each drug administered alone; for OSA severity (apnea hypopnea index, AHI): nine moderate-to-severe OSA patients, REM and NREM sleep
Description: In a preliminary investigation, nine patients equipped with a pneumotachograph attached to an oronasal mask to measure ventilation and an esophageal catheter to estimate the arousal threshold, performed a sleep study on each of these 4 conditions: placebo, atomoxetine alone, oxybutynin alone and ato-oxy.

[10] = seven patients with a low arousal threshold (Eckert)
[11] = zopiclone 7.5 mg, 21 healthy individuals and OSA patients
[12] = protriptyline 20 mg, 4 weeks, 5 obese men with severe OSA (Brownell)

O=c1n(CCCN2CCN(c3cccc(Cl)c3)CC2)nc2ccccn12 [trazodone]
AHI compared to placebo (OSA patients [1]; [10]): did not affect | improvement of arousal threshold (OSA patients [1]; [10]): 30% | arousal threshold in response to hypercapnia (OSA patients [1]; trazodone 100 mg before bedtime, eight OSA patients (Heinzer)): increased | reduction of AHI (OSA patients [1]; trazodone 100 mg, 15 unselected OSA patients (Smales)): 26%

CC(C)COc1ccc(CNC(=O)N(Cc2ccc(F)cc2)C2CCN(C)CC2)cc1 [pimavanserin]
increase of respiratory arousal threshold ascribed to pimavanserin (OSA patients [2]): ~50%

Cc1ccsc1C(=CCCN1CCC[C@@H](C(=O)O)C1)c1sccc1C [tiagabine]
AHI or oxygen saturation during sleep (OSA subjects): without worsening | increase in EEG slow wave activity (OSA subjects): 16%

CNCCCN1c2ccccc2CCc2ccccc21 [desipramine]
success in reducing OSA severity / the AHI (patients with OSA): modest success; also recorded: without success | airway collapsibility compared to placebo ([3]; 1 night, 14 OSA patients): less collapsible airway | effect on OSA severity as a group ([3]; 1 night, 14 patients): not significant | genioglossus activity during sleep ([3]; normal controls): increased genioglossus activity | upper airway collapsibility during sleep ([3]; normal controls): reduced upper airway collapsibility

CN1CCN(C(=O)OC2c3nccnc3C(=O)N2c2ccc(Cl)cn2)CC1 (stereo not drawn) [zopiclone]
change in AHI from baseline (OSA patients [4]): −25% | change in AHI from placebo (OSA patients [4]): −15% | AHI compared to placebo (OSA patients [5]): did not significantly change | increase in arousal threshold (OSA patients [5]): 20% | AHI vs placebo [6, 11]: did not change | arousal threshold vs placebo [6, 11]: significantly increased

NCC1(CC(=O)O)CCCCC1 [gabapentin]
increase of SWS (slow wave sleep) [7]: 20-60%

CNCCCC1c2ccccc2C=Cc2ccccc21 [protriptyline]
reduction in AHI from baseline (OSA patients [8]; open label 4-week crossover trial, 9 patients (Hanzel)): 42% | AHI during NREM sleep (OSA patients [8]; [12]): no change | oxygen saturation and daytime sleepiness (OSA patients [8]; [12]): improvements | NREM AHI as a group (OSA patients [8]; protriptyline 20 mg, 14 days, 10 moderate-to-severe OSA patients (Whyte)): did not change | success in reducing OSA severity / the AHI (patients with OSA; listed as Protriptyline): without success | success in reducing OSA severity / the AHI (patients with OSA): modest success

CNCC[C@@H](Oc1ccccc1C)c1ccccc1 [atomoxetine]
success in reducing OSA severity / the AHI (patients with OSA): modest success; also recorded: without success | AHI (patients with mild OSA): did not improve | daytime sleepiness (patients with mild OSA): significantly improve | share of the improvement in ventilation during sleep accounted for (OSA patients [9]; analysis of ventilatory parameters during all night): at least 70% | NREM (atomoxetine) and REM (oxybutynin) specific AHI (OSA patients [9]): did not respectively improve | effect on ventilation during sleep (OSA patients [9]): responsible for most of the ventilatory improvement | oxygen saturation / oxygen levels compared to placebo (OSA patients [9]): improved oxygen saturation | reduction in arousal threshold vs placebo (OSA patients [9]; nine OSA patients, atomoxetine p=0.03, combination p>0.7): 18% | OSA severity (apnea hypopnea index, AHI) (OSA patients [9]): did not improve OSA severity | OSA severity (apnea hypopnea index, AHI) (OSA patients [9]; listed as Atomoxetine): did not systematically reduce OSA severity

Cc1ccc(-c2nc3ccc(C)cn3c2CC(=O)N(C)C)cc1 [zolpidem]
increase in arousal threshold compared to placebo ([6]; 21 subjects with and without OSA, zolpidem 10 mg): ~30% and 25% | increase in median genioglossus muscle responsiveness compared to placebo ([6]; 21 subjects, p=0.03): 3 fold | genioglossus response to pharyngeal negative pressure compared to placebo ([6]; zolpidem 10 mg, 21 individuals): increased

CCN(CC)CC#CCOC(=O)C(O)(c1ccccc1)C1CCCCC1 (stereo not drawn) [oxybutynin]
NREM (atomoxetine) and REM (oxybutynin) specific AHI (OSA patients [9]): did not respectively improve | effect on ventilation during sleep (OSA patients [9]): minor effect on ventilation | oxygen saturation / oxygen levels compared to placebo (OSA patients [9]): did not improve oxygen levels | OSA severity (apnea hypopnea index, AHI) (OSA patients [9]): did not systematically reduce OSA severity
